Earlier results in patent publication US20060080073A1, “Three-dimensional structural activity correlation method” (priority 2002, published 2006).

target: T1, human corticosteroid-binding globulin (Homo sapiens, UniProt P08185); conditions: steroid derivatives disclosed by Cramer et al. (CoMFA benchmark); values given as negative logarithmic numbers, no unit
T1 sequence (P08185 23-405): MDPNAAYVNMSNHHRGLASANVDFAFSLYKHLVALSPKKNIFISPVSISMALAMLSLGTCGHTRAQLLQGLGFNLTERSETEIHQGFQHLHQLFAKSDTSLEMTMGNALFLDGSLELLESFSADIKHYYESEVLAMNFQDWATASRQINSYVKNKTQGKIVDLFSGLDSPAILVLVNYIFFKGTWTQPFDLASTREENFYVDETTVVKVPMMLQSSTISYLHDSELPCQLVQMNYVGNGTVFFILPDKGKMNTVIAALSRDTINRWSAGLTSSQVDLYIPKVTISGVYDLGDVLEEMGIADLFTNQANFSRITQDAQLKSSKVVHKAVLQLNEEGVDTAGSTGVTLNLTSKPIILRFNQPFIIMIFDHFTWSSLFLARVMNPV

SMILES | Binding affinity to human corticosteroid-binding globulins (CBG)
C[C@]12CCC(=O)C=C1CC[C@@H]1[C@@H]2C(=O)C[C@@]2(C)[C@H]1CC[C@]2(O)C(=O)CO [cortisone] | −6.892
C[C@]12CCC(=O)C=C1CC[C@@H]1[C@@H]2CC[C@]2(C)C(=O)CC[C@@H]12 [androstenedione] | −5.763
C[C@]12CCC(=O)C=C1CC[C@@H]1[C@@H]2[C@@H](O)C[C@@]2(C)[C@H]1CC[C@]2(O)C(=O)CO [cortisol] | −7.881
C[C@]12CCC(=O)C=C1CC[C@@H]1[C@@H]2CC[C@@]2(C)[C@H]1CC[C@]2(O)C(=O)CO [deoxycortisole] | −7.881
C[C@]12CCC(=O)C[C@@H]1CC[C@@H]1[C@@H]2CC[C@]2(C)[C@@H](O)CC[C@@H]12 [dihydrotestosterone] | −5.919
C[C@]12CC[C@H]3[C@@H](CCC4=CC(=O)CC[C@@]43C)[C@@H]1CC[C@@H]2C(=O)CO [deoxycorticosterone] | −7.653
CC(=O)[C@@]1(O)CC[C@H]2[C@@H]3CCC4=CC(=O)CC[C@]4(C)[C@H]3CC[C@@]21C [hydroxy progesterone] | −7.740
C[C@]12CC[C@H](O)CC1=CC[C@@H]1[C@@H]2CC[C@]2(C)C(=O)CC[C@@H]12 [dehydroepiandrosterone] | −5.000
CC(=O)[C@@]1(O)CC[C@H]2[C@@H]3CC[C@@H]4C[C@H](O)CC[C@]4(C)[C@H]3CC[C@@]21C [hydroxy pregnenolone] | −5.000
C[C@]12CC[C@@H](O)C[C@@H]1CC[C@@H]1[C@@H]2CC[C@]2(C)C(=O)CC[C@@H]12 [androsterone] | −5.613
C[C@]12CC[C@@H]3c4ccc(O)cc4CC[C@H]3[C@@H]1C[C@@H](O)[C@@H]2O [estriol] | −5.000
C[C@]12CCC(O)CC1CC[C@@H]1[C@@H]2CC[C@]2(C)C(O)CC[C@@H]12 (stereo partly drawn) [androstandiol] | −5.000
C[C@]12CC[C@@H](O)C[C@H]1CC[C@@H]1[C@@H]2CC[C@]2(C)C(=O)CC[C@@H]12 [etiocholanolone] | −5.255
C[C@]12C[C@H](O)[C@H]3[C@@H](CCC4=CC(=O)CC[C@@]43C)[C@@H]1CC[C@@H]2C(=O)CO [corticosterone] | −7.881
CC(=O)[C@H]1CC[C@H]2[C@@H]3CC=C4C[C@@H](O)CC[C@]4(C)[C@H]3CC[C@]12C [pregnenolone] | −5.255
C[C@]12CCC(=O)C=C1CC[C@@H]1[C@@H]2[C@@H](O)C[C@]2(C=O)[C@@H](C(=O)CO)CC[C@@H]12 [aldosterone] | −6.279
CC(=O)[C@H]1CC[C@H]2[C@@H]3CCC4=CC(=O)CC[C@]4(C)[C@H]3CC[C@]12C [progesterone] | −7.380
C[C@]12CC[C@H]3[C@@H](CCC4=CC(=O)CC[C@@]43C)[C@@H]1CC[C@@H]2O [teststerone] | −6.724
